From PMC6973020, “Quinoline‐Conjugated Ruthenacarboranes: Toward Hybrid Drugs with a Dual Mode of Action” (Chemmedchem, 2019)

Assays:
[1] = Ester hydrolysis in PBS/DMSO at pH 7.4 (time‐resolved UV‐vis); type: physicochemical; settings: PBS/DMSO (1 vol%), 20 μM
Source text: Following our recent investigations on the self‐assembly behavior of ruthenacarborane complexes in aqueous solutions at physiologic pH,9, 10 the behavior of free acid 3 and ester 4 in aqueous solution was studied via UV‐vis spectroscopy and Nanoparticle Tracking Analysis (NTA) in phosphate‐buffered saline (PBS)/DMSO mixtures (pH 7.4). UV‐vis spectroscopy is a useful tool to follow the ester hydrolysis over time, when a UV‐(vis)‐active chromophore is present (in the case of 4, the quinoline ring). Experiments were carried out at room temperature (23 and 25 °C, for UV‐vis and NTA, respectively), to simulate the conditions of the working solutions used for cell cultures, and at 37 °C (UV‐vis), to simulate the conditions of incubation of cells.
UV‐vis spectroscopy. Stock solutions of 3, 4 and 8‐hydroxyquinoline (8‐HQ) in distilled DMSO were freshly prepared before use ([3]=2.11 mM; [4]=6.56 mM; [8‐HQ]=25.76 mM). An aliquot of the DMSO stock solution of 3, 4 or 8‐HQ was added to 3 mL PBS solution, so that the final concentration was 20 μM. DMSO content was adjusted to 1 vol % (considering the amount of DMSO from the stock solutions) before addition of the ruthenacarborane, in all samples. Time‐resolved UV‐vis spectra of 4 were measured, over a period of 26 h at room temperature (23±1 °C) and at 37±0.3 °C to follow hydrolysis of the ester bond of 4 at physiologic pH (7.4). PBS/DMSO solutions of 3 and 8‐HQ were also measured, as references. All measurements were corrected by subtracting the blank (PBS+1 vol % DMSO). Experiments were run in duplicate.

LN229 cells = assay: AO staining (acidic vesicles), LN229; type: cell-based, human; settings: LN229, IC50 dose, 72 h, compared with cells treated with an IC50 dose of 3
Experimental: Flow cytometry. For gaining better insights into the mechanisms of action of the ruthenium complexes, MCF‐7 and LN229 cells incubated with an IC50 dose of 3 or 4, were analyzed via flow cytometry. Several staining protocols were carried out in parallel, in independent experiments: i) AnnV/PI for the detection of apoptotic cell death, ii) AO for the detection of acidic vacuoles, iii) ApoStat for checking caspase activation, iv) CFSE for detecting interference with cellular proliferation, and v) DAPI for the detection of morphological signs of apoptosis. Untreated cells or cells treated only with BSA (control) were also measured, as reference for BSA‐free and BSA‐containing drug formulations, respectively. […] Channels FL1 (green emission), FL2 (orange emission) and/or FL3 (dark red emission) were used for fluorescence detection, according to the specific staining agent. Sideward Scatter (SSC) for MCF‐7 cells treated with 4 or BSA−4 was also analyzed, with respect to the control, for detection of shifts of cell granularity. […]
Staining Protocols for Flow Cytometric Analysis. […] Finally, cells were washed in PBS, resuspended in PBS (or AnnV‐binding buffer for AnnV/PI), and analysed. […] Cells were then washed, trypsinised, dissolved in PBS and analysed by CyFlow® Space Partec using the PartecFloMax® software (Partec GmbH, Münster, Germany). […]

time after which hydrolysis is pronounced ([1]; pH 7.4, 23 °C): 5 h
time to complete hydrolysis of the ester bond ([1]; pH 7.4, 23 °C): 23 h
time to complete hydrolysis of the ester bond ([1]; pH 7.4, 37 °C): 2.5 h
Substance: closo ‐[3‐(η^6‐p‐Cymene)‐1‐(quinolin‐8‐yl‐acetate)‐3,1,2‐RuC2B9H10] [Compound 4]
number of acidic vesicles (AO staining) (LN229 cells): significantly lower
